We go through three compounds from ChEMBL document CHEMBL5728788, “Inhibitors of dihydroceramide desaturase for treating disease” (2021).

Broadly, the IC50 is the concentration needed to halve the response being measured.

In this assay the target is T1, Sphingolipid delta(4)-desaturase DES1 (Homo sapiens, UniProt O15121).
T1 sequence (O15121 whole entry): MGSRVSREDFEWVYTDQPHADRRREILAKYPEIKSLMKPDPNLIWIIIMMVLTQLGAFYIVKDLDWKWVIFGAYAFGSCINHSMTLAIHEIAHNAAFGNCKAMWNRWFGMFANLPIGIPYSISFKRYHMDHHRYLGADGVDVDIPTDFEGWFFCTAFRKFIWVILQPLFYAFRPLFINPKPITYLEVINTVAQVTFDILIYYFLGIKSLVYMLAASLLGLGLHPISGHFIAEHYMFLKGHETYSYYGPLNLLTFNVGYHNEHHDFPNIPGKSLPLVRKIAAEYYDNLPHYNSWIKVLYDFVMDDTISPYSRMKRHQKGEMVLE
The assay is described as follows: Des1 Activity Assays: Jurkat clone E6-1 cells were grown and then seeded at 10^6 cells/mL in a 96-well plate (400 μL in each well. The cells were administered 100 μL of cell culture media containing 50-μM NBD-C6-dihydroceramide (Des1 substrate), affording a final concentration of substrate of 10 μM. The cells were incubated with substrate at 4° C. for 30 minutes. Following the incubation at 4° C., the cell suspension was centrifuged at 1200 rpm for 3 minutes, and the cell pellet is resuspended in 400 μL of fresh media containing various concentrations of either fenretinide (known Des1 inhibitor control compound) or test article. The final concentrations of control compound and test compounds were tested in a range from 0-10 μM. The cells and compounds were incubated at 37° C. for 3 hours. Following the 3-hour incubation, the plate was centrifuged at 2500 g for 3 minutes at 4° C., followed by collection and transfer of 200 μL of the supernatant to a new 96-well plate with 300 μL of methanol an containing appropriate internal standards for liquid chromatography/tandem mass spectroscopy (LC/MS/MS) analysis (internal standard: 500 nM labetalol and 100 nM alprazolam). The samples were vortexed for 2 minutes followed by centrifugation at 3,220 g for 20 minutes. Following centrifugation, 200 μL of the supernatant was transferred to a new 96-well plate for LC-MS/MS analysis to determine the amount of NBD-C6-ceramide (Des1 product) produced. The assay was typically performed in duplicate. A reduction of at least 30% compared to vehicle control (0 μM test article) is indicative of an active compound, and a reduction of 75% compared to vehicle control is preferred. In kind it is cell-based.
The compound `O=C(Nc1ccc(O)cn1)c1ccc(-c2cccnc2)cc1` displayed an IC50 of 130 nM.

Compound `O=C(Cc1ccccc1)Nc1ccc(O)cn1` displayed a half-maximal inhibitory concentration (IC50) of 4500 nM.

Regarding `O=C(CC1CCN(c2ccc(Cl)cn2)CC1)Nc1ccc(O)cn1`, the IC50 was found to be 3.9 nM.
